The values that follow come from publication PMC5218480 (PLoS ONE, 2017).

The test concerns MV-4-11 cells. Nature of the test: Gene expression microarray analysis (Affymetrix PrimeView) and GSEA. In kind it is cell-based, human. On the set-up: RFU PODN (11730768_x_at) / Fold change /veh PODN (11730768_x_at) / RFU LINC00158 (11744669_a_at) / Fold change /veh LINC00158 (11744669_a_at) / RFU DUSP10 (11751237_a_at) / Fold change /veh DUSP10 (11751237_a_at) / RFU ID3 (11757404_x_at) / Fold change /veh ID3 (11757404_x_at) / RFU PLEKHG5 (11737974_s_at) / Fold change /veh PLEKHG5 (11737974_s_at) / RFU LRRC4B (11730491_at) / Fold change /veh LRRC4B (11730491_at) / RFU GIMAP4 (11747438_a_at) / Fold change /veh GIMAP4 (11747438_a_at) / RFU KRT8 (11758183_x_at) / Fold change /veh KRT8 (11758183_x_at) / RFU CNN1 (11734310_a_at) / Fold change /veh CNN1 (11734310_a_at) / RFU VPS37D (11726825_at) / Fold change /veh VPS37D (11726825_at) / RFU C10orf10 (11716522_x_at) / Fold change /veh C10orf10 (11716522_x_at) / RFU KIR2DL2 /// KIR2DL4 /// KIR2DL5A /// KIR2DL5B /// KIR2DS1 /// KIR2DS2 /// KIR2DS3 /// KIR2DS4 /// KIR3DL3 /// KIR3DL3 /// KIR3DS1 (11738374_at) / Fold change /veh KIR2DL2 /// KIR2DL4 /// KIR2DL5A /// KIR2DL5B /// KIR2DS1 /// KIR2DS2 /// KIR2DS3 /// KIR2DS4 /// KIR3DL3 /// KIR3DL3 /// KIR3DS1 (11738374_at) / RFU C1QL1 (11718748_at) / Fold change /veh C1QL1 (11718748_at) / RFU TMPRSS4 (11747572_a_at) / Fold change /veh TMPRSS4 (11747572_a_at) / RFU HAMP (11756126_x_at) / Fold change /veh HAMP (11756126_x_at) / RFU RNFT2 (11725882_a_at) / Fold change /veh RNFT2 (11725882_a_at) / RFU NR4A2 (11747474_a_at) / Fold change /veh NR4A2 (11747474_a_at) / RFU ABCC12 (11746883_a_at) / Fold change /veh ABCC12 (11746883_a_at) / RFU TMEM136 (11760407_x_at) / Fold change /veh TMEM136 (11760407_x_at) / RFU CLDN22 /// WWC2 (11732394_at) / Fold change /veh CLDN22 /// WWC2 (11732394_at) / RFU HLA-DPB1 (11760878_x_at) / Fold change /veh HLA-DPB1 (11760878_x_at) / RFU SPINT1 (11716480_a_at) / Fold change /veh SPINT1 (11716480_a_at) / RFU GAP43 (11754022_s_at) / Fold change /veh GAP43 (11754022_s_at) / RFU A4GNT (11735810_at) / Fold change /veh A4GNT (11735810_at) / RFU PRB3 (11715151_x_at) / Fold change /veh PRB3 (11715151_x_at) / RFU TUBB4B (11761932_at) / Fold change /veh TUBB4B (11761932_at) / RFU CAPN14 (11732068_a_at) / Fold change /veh CAPN14 (11732068_a_at) / RFU TMCC2 (11721928_a_at) / Fold change /veh TMCC2 (11721928_a_at) / RFU IRGQ (11745062_a_at) / Fold change /veh IRGQ (11745062_a_at) / RFU FAM174B (11720279_a_at) / Fold change /veh FAM174B (11720279_a_at) / RFU TMPRSS4 (11748680_a_at) / Fold change /veh TMPRSS4 (11748680_a_at) / RFU FAM212B (11763350_a_at) / Fold change /veh FAM212B (11763350_a_at) / RFU PLEKHG5 (11743358_a_at) / Fold change /veh PLEKHG5 (11743358_a_at) / RFU ZSCAN30 (11745921_a_at) / Fold change /veh ZSCAN30 (11745921_a_at) / RFU CMKLR1 (11741424_a_at) / Fold change /veh CMKLR1 (11741424_a_at) / RFU LOC101060620 /// MAPK8IP1 (11723275_at) / Fold change /veh LOC101060620 /// MAPK8IP1 (11723275_at) / RFU SPTSSB (11747773_x_at) / Fold change /veh SPTSSB (11747773_x_at) / RFU PRSS12 (11739890_at) / Fold change /veh PRSS12 (11739890_at) / RFU BIN1 (11741810_x_at) / Fold change /veh BIN1 (11741810_x_at) / RFU WNT11 (11732464_a_at) / Fold change /veh WNT11 (11732464_a_at) / RFU C10orf10 (11716521_a_at) / Fold change /veh C10orf10 (11716521_a_at) / RFU C5orf56 (11738089_at) / Fold change /veh C5orf56 (11738089_at) / RFU CYB561 (11721691_x_at) / Fold change /veh CYB561 (11721691_x_at) / RFU ANKRD19P (11752326_a_at) / Fold change /veh ANKRD19P (11752326_a_at) / RFU OR2T12 /// OR2T33 /// OR2T8 (11738714_s_at) / Fold change /veh OR2T12 /// OR2T33 /// OR2T8 (11738714_s_at) / RFU VCAN (11748164_a_at) / Fold change /veh VCAN (11748164_a_at) / RFU JSRP1 (11732532_at) / Fold change /veh JSRP1 (11732532_at) / RFU KRTAP10-11 (11738290_x_at) / Fold change /veh KRTAP10-11 (11738290_x_at) / RFU MYO3A (11730013_a_at) / Fold change /veh MYO3A (11730013_a_at) / RFU EBF3 (11725865_a_at) / Fold change /veh EBF3 (11725865_a_at) / RFU CAMK2N1 (11719241_x_at) / Fold change /veh CAMK2N1 (11719241_x_at) / RFU C5orf56 (11738088_a_at) / Fold change /veh C5orf56 (11738088_a_at) / RFU OLFML3 (11715873_a_at) / Fold change /veh OLFML3 (11715873_a_at) / RFU LOC100653217 /// NTM (11731650_a_at) / Fold change /veh LOC100653217 /// NTM (11731650_a_at) / RFU MAPK11 (11762145_a_at) / Fold change /veh MAPK11 (11762145_a_at) / RFU FIZ1 (11724087_x_at) / Fold change /veh FIZ1 (11724087_x_at) / RFU OASL (11726364_x_at) / Fold change /veh OASL (11726364_x_at) / RFU SOX15 (11748057_x_at) / Fold change /veh SOX15 (11748057_x_at) / RFU CD79A (11719716_a_at) / Fold change /veh CD79A (11719716_a_at) / RFU HIST1H1D (11736915_at) / Fold change /veh HIST1H1D (11736915_at) / RFU CASKIN2 (11723855_a_at) / Fold change /veh CASKIN2 (11723855_a_at) / RFU LOC730098 (11760151_x_at) / Fold change /veh LOC730098 (11760151_x_at) / RFU OR4N2 (11742367_at) / Fold change /veh OR4N2 (11742367_at) / RFU PRRT2 (11749266_a_at) / Fold change /veh PRRT2 (11749266_a_at) / RFU SNX32 (11753110_a_at) / Fold change /veh SNX32 (11753110_a_at) / RFU CDHR5 (11726645_a_at) / Fold change /veh CDHR5 (11726645_a_at) / RFU RCAN1 (11760418_a_at) / Fold change /veh RCAN1 (11760418_a_at) / RFU FAM167A (11723789_a_at) / Fold change /veh FAM167A (11723789_a_at) / RFU FAM26E (11764081_at) / Fold change /veh FAM26E (11764081_at) / RFU ISYNA1 (11749810_s_at) / Fold change /veh ISYNA1 (11749810_s_at) / RFU ACY1 (11761880_at) / Fold change /veh ACY1 (11761880_at) / RFU 11764098_at / Fold change /veh 11764098_at / RFU SAMD14 (11745864_x_at) / Fold change /veh SAMD14 (11745864_x_at) / RFU NPB (11741838_a_at) / Fold change /veh NPB (11741838_a_at) / RFU TMPRSS6 (11731388_a_at) / Fold change /veh TMPRSS6 (11731388_a_at) / RFU KRTAP10-2 (11738614_at) / Fold change /veh KRTAP10-2 (11738614_at) / RFU ARHGAP8 /// PRR5-ARHGAP8 (11727945_x_at) / Fold change /veh ARHGAP8 /// PRR5-ARHGAP8 (11727945_x_at) / RFU KRTAP5-7 /// NADSYN1 (11734609_at) / Fold change /veh KRTAP5-7 /// NADSYN1 (11734609_at) / RFU RASL12 (11751679_a_at) / Fold change /veh RASL12 (11751679_a_at) / RFU CDKN2B (11736163_a_at) / Fold change /veh CDKN2B (11736163_a_at) / RFU PRF1 (11729649_at) / Fold change /veh PRF1 (11729649_at) / RFU, ZNF638 /// ZNF638-IT1 / Fold change vs veh, ZNF638 /// ZNF638-IT1 / RFU, PANK3 / Fold change vs veh, PANK3 / RFU, SH3YL1 / Fold change vs veh, SH3YL1 / RFU, ZEB2 / Fold change vs veh, ZEB2 / RFU, NRIP1 / Fold change vs veh, NRIP1 / RFU, PTTG1IP / Fold change vs veh, PTTG1IP / RFU, CAPN2 / Fold change vs veh, CAPN2 / RFU, MED14 / Fold change vs veh, MED14 / RFU, SNORA58 / Fold change vs veh, SNORA58 / RFU, C1orf63 / Fold change vs veh, C1orf63 / RFU, LRRFIP1 / Fold change vs veh, LRRFIP1 / RFU, NDUFAF7 / Fold change vs veh, NDUFAF7 / RFU, SLC12A2 / Fold change vs veh, SLC12A2 / RFU, IBTK / Fold change vs veh, IBTK / RFU, ESF1 / Fold change vs veh, ESF1 / Fold change vs veh, TMEM50B / RFU, TAOK1 / Fold change vs veh, TAOK1 / RFU, ACBD3 / Fold change vs veh, ACBD3 / RFU, TMA16 / Fold change vs veh, TMA16 / RFU, RWDD3 / Fold change vs veh, RWDD3 / RFU, BCAT1 / Fold change vs veh, BCAT1 / RFU, EDEM3 / Fold change vs veh, EDEM3 / RFU, TMEM33 / Fold change vs veh, TMEM33 / RFU, WDR75 / Fold change vs veh, WDR75 / RFU, AHCTF1 / Fold change vs veh, AHCTF1 / RFU, TFRC / Fold change vs veh, TFRC / RFU, ZDHHC17 / Fold change vs veh, ZDHHC17 / RFU, NOM1 / Fold change vs veh, NOM1 / RFU, ARL8B / Fold change vs veh, ARL8B / RFU, ZBTB11 / Fold change vs veh, ZBTB11 / RFU, TAMM41 / Fold change vs veh, TAMM41 / RFU, KIAA1704 /// LOC100996395 / Fold change vs veh, KIAA1704 /// LOC100996395 / RFU, ING1 / Fold change vs veh, ING1 / RFU, TRMT61B / Fold change vs veh, TRMT61B / RFU, FUBP3 / Fold change vs veh, FUBP3 / RFU, TP53 / Fold change vs veh, TP53 / RFU, TNKS2 / Fold change vs veh, TNKS2 / RFU, ZFP14 / Fold change vs veh, ZFP14 / RFU, ACTR2 / Fold change vs veh, ACTR2 / RFU, PPP3R1 / Fold change vs veh, PPP3R1 / RFU, PIK3R1 / Fold change vs veh, PIK3R1 / RFU, HNRNPA1 / Fold change vs veh, HNRNPA1 / RFU, RNF170 / Fold change vs veh, RNF170 / RFU, ZNF28 / Fold change vs veh, ZNF28 / RFU, RNGTT / Fold change vs veh, RNGTT / RFU, OGT / Fold change vs veh, OGT / RFU, BRD1 / Fold change vs veh, BRD1 / RFU, MARS / Fold change vs veh, MARS / RFU, ZNF655 / Fold change vs veh, ZNF655 / RFU, FAHD1 / Fold change vs veh, FAHD1 / RFU, BDP1 / Fold change vs veh, BDP1 / RFU, LRRCC1 / Fold change vs veh, LRRCC1 / RFU, ARID1A / Fold change vs veh, ARID1A / RFU, ZNF146 / Fold change vs veh, ZNF146 / RFU, ZNF330 / Fold change vs veh, ZNF330 / RFU, GPN3 / Fold change vs veh, GPN3 / RFU, C9orf123 / Fold change vs veh, C9orf123 / RFU, N4BP2L2 / Fold change vs veh, N4BP2L2 / RFU, ARFIP1 / Fold change vs veh, ARFIP1 / RFU, FAM179B / Fold change vs veh, FAM179B / RFU, BCL10 / Fold change vs veh, BCL10 / RFU, UHRF1BP1L / Fold change vs veh, UHRF1BP1L / RFU, BET1 / Fold change vs veh, BET1 / RFU, CNOT2 / Fold change vs veh, CNOT2 / RFU, ZNF268 / Fold change vs veh, ZNF268 / Fold change vs veh, ZNF507 / RFU, DGCR2 / Fold change vs veh, DGCR2 / RFU, WDSUB1 / Fold change vs veh, WDSUB1 / Fold change vs veh, HSP90B1 /// MIR3652 / RFU, ADSS / Fold change vs veh, ADSS / RFU, GK / Fold change vs veh, GK / RFU, ZNF148 / Fold change vs veh, ZNF148 / RFU, TAF9 / Fold change vs veh, TAF9 / RFU, SLC1A5 / Fold change vs veh, SLC1A5 / RFU, SLMO2 / Fold change vs veh, SLMO2 / RFU, ABCC4 / Fold change vs veh, ABCC4 / RFU, LOC101060439 /// RAP1B / Fold change vs veh, LOC101060439 /// RAP1B / RFU, RFX7 / Fold change vs veh, RFX7 / RFU, GTPBP10 / Fold change vs veh, GTPBP10 / RFU, CNEP1R1 / Fold change vs veh, CNEP1R1 / RFU, BIVM-ERCC5 /// ERCC5 / Fold change vs veh, BIVM-ERCC5 /// ERCC5 / RFU, ILF3 / Fold change vs veh, ILF3 / RFU 11762660_at / Fold change /veh 11762660_at / RFU VCAN (11757783_s_at) / Fold change /veh VCAN (11757783_s_at) / RFU DDX43 (11728927_at) / Fold change /veh DDX43 (11728927_at) / RFU KRT8 (11758188_x_at) / Fold change /veh KRT8 (11758188_x_at) / RFU NKD1 (11759106_at) / Fold change /veh NKD1 (11759106_at) / RFU SRD5A1 (11742802_a_at) / Fold change /veh SRD5A1 (11742802_a_at) / RFU TPSAB1 /// TPSB2 (11721975_s_at) / Fold change /veh TPSAB1 /// TPSB2 (11721975_s_at) / RFU GSTM3 (11746129_a_at) / Fold change /veh GSTM3 (11746129_a_at) / RFU IL23R (11737362_x_at) / Fold change /veh IL23R (11737362_x_at) / RFU TMEM51 (11727254_a_at) / Fold change /veh TMEM51 (11727254_a_at) / RFU PIWIL2 (11732686_x_at) / Fold change /veh PIWIL2 (11732686_x_at) / RFU ORM1 (11744905_x_at) / Fold change /veh ORM1 (11744905_x_at) / RFU CCDC152 (11743942_at) / Fold change /veh CCDC152 (11743942_at) / RFU ECM1 (11717891_a_at) / Fold change /veh ECM1 (11717891_a_at) / RFU IL23R (11748794_a_at) / Fold change /veh IL23R (11748794_a_at) / RFU TNFAIP8L3 (11732012_x_at) / Fold change /veh TNFAIP8L3 (11732012_x_at) / RFU MBOAT4 (11741988_at) / Fold change /veh MBOAT4 (11741988_at) / RFU 11764193_at / Fold change /veh 11764193_at / RFU TMEM53 (11763286_at) / Fold change /veh TMEM53 (11763286_at) / RFU MAGEB2 (11727129_at) / Fold change /veh MAGEB2 (11727129_at) / RFU TMEM200A (11744735_a_at) / Fold change /veh TMEM200A (11744735_a_at) / RFU CCDC152 (11751479_a_at) / Fold change /veh CCDC152 (11751479_a_at) / RFU FAM211A (11726209_a_at) / Fold change /veh FAM211A (11726209_a_at) / RFU RGS16 (11746705_a_at) / Fold change /veh RGS16 (11746705_a_at) / RFU VCAN (11755009_s_at) / Fold change /veh VCAN (11755009_s_at) / RFU RHOB (11743442_s_at) / Fold change /veh RHOB (11743442_s_at) / RFU RGS16 (11720943_a_at) / Fold change /veh RGS16 (11720943_a_at) / RFU RGS16 (11720944_at) / Fold change /veh RGS16 (11720944_at) / RFU, VPS4B / Fold change vs veh, VPS4B / RFU, CREB1 / Fold change vs veh, CREB1 / RFU, DNAJC13 / Fold change vs veh, DNAJC13 / RFU, GNAQ / Fold change vs veh, GNAQ / RFU, CDK5R1 / Fold change vs veh, CDK5R1 / RFU, ZRANB3 / Fold change vs veh, ZRANB3 / RFU, CUL4A / Fold change vs veh, CUL4A / RFU, CCNY / Fold change vs veh, CCNY / RFU, UFL1 / Fold change vs veh, UFL1 / RFU, COG3 / Fold change vs veh, COG3 / RFU, DIAPH2 / Fold change vs veh, DIAPH2 / RFU, SKA2 / Fold change vs veh, SKA2 / RFU, AFF3 / Fold change vs veh, AFF3 / RFU, LMF1 / Fold change vs veh, LMF1 / RFU, IPO11 / Fold change vs veh, IPO11 / RFU, DFFB / Fold change vs veh, DFFB / RFU, FOXP1 / Fold change vs veh, FOXP1 / RFU, CARD8 / Fold change vs veh, CARD8 / RFU, STRN3 / Fold change vs veh, STRN3 / RFU, ADK / Fold change vs veh, ADK / RFU, RASSF2 / Fold change vs veh, RASSF2 / RFU, WIPF1 / Fold change vs veh, WIPF1 / RFU, LARP1B / Fold change vs veh, LARP1B / RFU, RASA1 / Fold change vs veh, RASA1 / RFU, RB1 / Fold change vs veh, RB1 / RFU, PPFIA1 / Fold change vs veh, PPFIA1 / RFU, MAT2A / Fold change vs veh, MAT2A / RFU, CCT5 / Fold change vs veh, CCT5 / RFU, WDR92 / Fold change vs veh, WDR92 / RFU, CUX1 / Fold change vs veh, CUX1 / RFU, TTC7A / Fold change vs veh, TTC7A / RFU, TMEM135 / Fold change vs veh, TMEM135 / RFU, DEPTOR / Fold change vs veh, DEPTOR / RFU, CPM / Fold change vs veh, CPM / RFU, DNAJB6 / Fold change vs veh, DNAJB6 / RFU, CACNA2D3 / Fold change vs veh, CACNA2D3 / RFU, DTX4 / Fold change vs veh, DTX4 / RFU, TFCP2 / Fold change vs veh, TFCP2 / RFU, GMCL1 /// GMCL1P1 / Fold change vs veh, GMCL1 /// GMCL1P1 / RFU, AEBP2 / Fold change vs veh, AEBP2 / RFU, SNHG1 /// SNORD22 /// SNORD25 /// SNORD26 /// SNORD27 /// SNORD28 /// SNORD29 /// SNORD31 / Fold change vs veh, SNHG1 /// SNORD22 /// SNORD25 /// SNORD26 /// SNORD27 /// SNORD28 /// SNORD29 /// SNORD31 / Fold change (Aza/veh), C12orf56 (ProbeSet 11735607_a_at) / Fold change (ACY-1035/veh), C12orf56 (ProbeSet 11735607_a_at) / Fold change (Aza/veh), FGFR1OP (ProbeSet 11751329_s_at) / Fold change (ACY-1035/veh), FGFR1OP (ProbeSet 11751329_s_at) / Fold change (Aza/veh), VPS36 (ProbeSet 11739960_a_at) / Fold change (ACY-1035/veh), VPS36 (ProbeSet 11739960_a_at) / RFU SYPL1 (11715823_x_at) / Fold change /veh SYPL1 (11715823_x_at) / RFU IGFBP7 (11715501_s_at) / Fold change /veh IGFBP7 (11715501_s_at) / RFU REEP3 (11722064_at) / Fold change /veh REEP3 (11722064_at) / RFU IGLL1 (11728026_x_at) / Fold change /veh IGLL1 (11728026_x_at): dose or concentration left out as unconfirmed. Conditions: ProbeSet 11730501_a_at; LIST D.

Molecules are shown by their SMILES.

On to `Nc1ccc(-c2cccs2)cc1NC(=O)c1ccc2c(c1)cc(C1CC1)n2CCN1CCOCC1` [ACY-1035], for which the “RFU, CACNA2D3” value amounted to 202.11 RFU.
